Legend:
[1] = biological target: T1, human SGLT1 (Homo sapiens, UniProt P13866); assay: Assay for inhibitory effects on human SGLT1 activity (uptake of methyl-α-D-glucopyranoside in CS1-5-11D cells); format: cell-based; details: CHO-K1 cells stably expressing human SGLT1 (CS1-5-11D), 1 mM 14C-α-MG uptake, 37° C., 1 hour
T1 construct: expressed in transfected cells
T1 sequence (P13866 1-664): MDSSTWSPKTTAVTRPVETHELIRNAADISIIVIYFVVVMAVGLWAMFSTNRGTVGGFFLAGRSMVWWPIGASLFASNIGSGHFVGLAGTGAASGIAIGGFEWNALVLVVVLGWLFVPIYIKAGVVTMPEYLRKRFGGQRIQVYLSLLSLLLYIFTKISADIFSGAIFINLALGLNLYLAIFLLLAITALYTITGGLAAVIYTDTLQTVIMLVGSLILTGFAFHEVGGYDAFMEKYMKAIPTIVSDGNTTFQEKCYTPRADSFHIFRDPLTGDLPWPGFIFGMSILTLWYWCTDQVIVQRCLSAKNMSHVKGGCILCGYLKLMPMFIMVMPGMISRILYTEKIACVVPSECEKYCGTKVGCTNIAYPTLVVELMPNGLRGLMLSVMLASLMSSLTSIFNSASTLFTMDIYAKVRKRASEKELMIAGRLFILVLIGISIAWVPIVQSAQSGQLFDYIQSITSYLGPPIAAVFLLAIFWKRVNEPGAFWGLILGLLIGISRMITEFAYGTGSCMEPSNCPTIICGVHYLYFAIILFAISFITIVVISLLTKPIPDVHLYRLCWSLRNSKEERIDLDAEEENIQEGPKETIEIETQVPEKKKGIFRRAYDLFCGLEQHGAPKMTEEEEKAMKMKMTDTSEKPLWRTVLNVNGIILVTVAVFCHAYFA
Protocol: Assay for Inhibitory Effects on Human SGLT1 Activity
1) Cloning and Construction of the Vector Expressing Human SGLT1
The cDNA library was prepared for PCR amplification by reverse transcription from total RNA deprived from human small intestine (Ori gene) using oligo-dT as a primer. Using this cDNA library as a template, the DNA fragment coding 1 to 2005 bp of human SGLT1 (ACCESSION: M24847), which was reported by Hediger et al., was amplified by PCR method and inserted into the multi-cloning site of pcDNA3.1 (−) (Invitrogen). The DNA sequence inserted was perfectly matched to the previously reported sequence.
2) Establishment of Cell Line Stably Expressing Human SGLT1
The expression vector of human SGLT1 was digested by Sca I into a linear DNA. The linear DNA was transfected into CHO-K1 cells by means of lipofection (Effectene Transfection Reagent: QIAGEN). Neomycin resistant cell lines were selected by culture in the medium containing G418 (1 mg/mL, LIFE TECHNOLOGIES), and then the activity against the uptake of methyl-α-D-glucopyranoside was measured by the method described below. […] CS1-5-11D cells were cultured in the presence of G418 at 200 μg/mL. […]
CS1-5-11D cells were seeded into a 96-well culture plate at a density of 3×10^4 cells/well and cultured for 2 days, and were used in the uptake assay. […] Radioactivity was measured by means of micro-scintillation counter TopCount (Packard). […]

[2] = biological target: T2, human SGLT2 (Homo sapiens, UniProt P31639); assay: Assay for inhibitory effects on human SGLT2 activity (uptake of methyl-α-D-glucopyranoside in CS2-5E cells); format: cell-based; details: CHO-K1 cells stably expressing human SGLT2 (CS2-5E), 1 mM 14C-α-MG uptake, 37° C., 1 hour
T2 construct: expressed in transfected cells
T2 sequence (P31639 1-672): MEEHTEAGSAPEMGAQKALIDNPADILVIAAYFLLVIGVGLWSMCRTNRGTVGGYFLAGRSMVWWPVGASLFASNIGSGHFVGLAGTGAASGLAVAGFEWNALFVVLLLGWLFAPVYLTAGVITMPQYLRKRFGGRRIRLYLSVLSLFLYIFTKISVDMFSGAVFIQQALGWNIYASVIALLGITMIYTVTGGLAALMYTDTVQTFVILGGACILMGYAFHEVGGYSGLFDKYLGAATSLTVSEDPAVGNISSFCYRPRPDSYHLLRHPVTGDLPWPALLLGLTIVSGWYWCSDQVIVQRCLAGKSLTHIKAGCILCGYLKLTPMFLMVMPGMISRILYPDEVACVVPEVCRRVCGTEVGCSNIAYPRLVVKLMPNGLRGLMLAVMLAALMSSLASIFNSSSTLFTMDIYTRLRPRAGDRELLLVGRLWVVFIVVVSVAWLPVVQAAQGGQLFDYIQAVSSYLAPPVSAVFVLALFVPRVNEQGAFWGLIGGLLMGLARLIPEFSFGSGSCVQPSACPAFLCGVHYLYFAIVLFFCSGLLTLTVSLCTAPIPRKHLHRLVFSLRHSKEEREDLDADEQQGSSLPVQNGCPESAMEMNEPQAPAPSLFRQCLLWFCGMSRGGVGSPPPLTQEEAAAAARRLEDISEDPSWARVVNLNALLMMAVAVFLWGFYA
Protocol: Assay for Inhibitory Effects on Human SGLT2 Activity 1) Cloning and Construction of the Vector Expressing Human SGLT2 The cDNA library was prepared for PCR amplification by reverse transcription from total RNA deprived from human kidney (Ori gene) using oligo-dT as a primer. Using this cDNA library as a template, the DNA fragment coding 2 to 2039 bp of human SGLT2 (ACCESSION: M95549, M95299), which was reported by R. G. Wells et al., was amplified by PCR method and inserted into the multi-cloning site of pcDNA3.1 (−) (Invitrogen). The DNA sequence inserted was perfectly matched to the previously reported sequence. 2) Establishment of Cell Line Stably Expressing Human SGLT2 The expression vector of human SGLT2 was digested by Sca I into a linear DNA. The linear DNA was transfected into CHO-K1 cells by means of lipofection (Effectene Transfection Reagent: QIAGEN). Neomycin resistant cell lines were selected by culture in the medium containing G418 (1 mg/mL, LIFE TECHNOLOGIES), and then the activity against the uptake of methyl-α-D-glucopyranoside was measured by the method described below. […] CS2-5E cells were cultured in the presence of G418 at 200 μg/mL. 3) Measurement of the Inhibitory Activity Against the Uptake of Methyl-α-D-glucopyranoside (α-MG) CS2-5E cells were seeded into a 96-well culture plate at a density of 3×10^4 cells/well and cultured for 2 days, and were used in the uptake assay. A mixture of non-labeled (Sigma) and ^14C-labeled α-MG (Amersham Pharmacia Biotech) was added to the uptake buffer (pH 7.4; containing 140 mM sodium chloride, 2 mM potassium chloride, 1 mM calcium chloride, 1 mM magnesium chloride, […] and 5 mM tris(hydroxymethyl)aminomethane) at the final concentration of 1 mM. […] Radioactivity was measured by means of micro-scintillation counter TopCount (Packard). One hundred % was set to the difference between the uptake in the control group and the basal uptake, and the uptake of methyl α-D-glucopyranoside at each drug concentration were calculated. […]

## OC[C@H]1O[C@@H](c2cc3c(CCc4ccccc4)cccc3s2)[C@H](O)[C@@H](O)[C@@H]1O [Example 1, 2-(β-D-Glucopyranosyl)-4-(2-phenylethyl)benzo[b]thiophene]
[1]
  IC50: 220 nM
[2]
  IC50: 58 nM

## OC[C@H]1O[C@@H](c2cc3cccc(CCc4ccccc4)c3s2)[C@H](O)[C@@H](O)[C@@H]1O [Example 2, 2-(β-D-Glucopyranosyl)-7-(2-phenylethyl)benzo[b]thiophene]
[2]
  IC50: 130 nM

## Cc1ccc(Cc2cccc3cc([C@@H]4O[C@H](CO)[C@@H](O)[C@H](O)[C@H]4O)sc23)cc1 [Example 3, 2-(β-D-Glucopyranosyl)-7-(4-methylbenzyl)benzo[b]thiophene]
[2]
  IC50: 2 nM
